Consider 2 compounds from patent publication US7169407B1, “Carbonyl stress-decreasing agent” (Kiyoshi Kurokawa, priority 1999, dated 2007).

Molecules are shown by their SMILES.

Experiment [1] in a line: Carbonyl compound-trapping effect of biguanide agents in phosphate buffer (Example 1). Conditions: 3 mM biguanide agent, 0.1 mM carbonyl compounds each, 0.1M phosphate buffer pH7.4, 37° C., over incubation period; HPLC.
Test in experiment [2]: as above
Conditions: 3 mM biguanide agent, 0.1 mM carbonyl compounds each, 0.1M phosphate buffer pH7.4, 37° C., over incubation period; HPLC. This is another data set of the same source.

With `CCCCNC(=N)NC(=N)N` [buformin, butyl biguanide], the concentration of methylglyoxal entry in experiment [1] was “markedly decreased”. For the same compound, the concentration of glyoxal result in experiment [2] is recorded as “markedly decreased”.

As to `N=C(N)NC(=N)NCCc1ccccc1` [phenformin, phenethyl biguanide], the concentration of methylglyoxal result in experiment [1] was “markedly decreased”. Also, the concentration of glyoxal entry in experiment [2] is listed as “markedly decreased”.
